From patent US20240408132A1, “HYPOHALOUS ACIDS FOR TREATING INFLAMMATORY DISEASES AND INHIBITING GROWTH OF MALIGNANCIES” (BT Manufacturing, LLC, priority 2020, published 2024)
Where two headings read alike, the source gives them in different places.

Key:
IL-6 [1] = biological target: T1, IL-6 (Homo sapiens, UniProt P05231); experiment: ELISA of IL-6 binding to anti-IL6 antibody after exposure to HOCl or HOBr; conditions: IL-6 exposed for 5 minutes at concentrations >2 ppm, halogen quenched before incubation
Protocol: An ELISA assay (Fisher Scientific) was used to detect binding changes between IL6 and anti-IL6 antibody binding in the presence of HOCl or HOBr. Anti-human IL6 antibody was immobilized to a polystyrene 96 well plate as the capture antibody. IL-6 was exposed to various concentrations of HOCl or HOBr for 5 minutes. The active halogen was quenched before incubation with the coated plate wells. A second anti-human IL6 antibody was introduced to the coated wells and served as a detector to an enzyme-mediated chromophore indicator system.
The inhibition of IL-6 reactivity by exposure to HOCl is illustrated in FIG. 1.

human subjects = experiment: Safety of human volunteers exposed to microaerosolized HOCl via inhalation; type: in vivo; conditions: dense microaerosols for 2-5 minutes, 400 episodes
Protocol: The safety of exposure of human subjects to microaerosolized pure stable HOCl via the respiratory route was evaluated.
Human volunteers were exposed to dense microaerosols of HOCl for periods of 2-5 minutes and submitted subjective reports of the outcomes of these experiences. Data on a total of 400 such episodes were collected under medical supervision.

mouse [2] = conditions: in vivo
Source text: (§1) Experimental exposures of rodents were done according to OECD method 423 for acute oral toxicity assessment, OECD method 434 for acute dermal toxicity and OECD method 433 for acute inhalation.

mouse [3] = conditions: in vivo; remark: listed apart in the source
Source text: as §1

IL-6 [4] = biological target: T1, IL-6; experiment: IL-6 bioassay (Promega), luminescence in receptor-expressing human cells; type: cell-based
Protocol: An IL-6 bioassay (Promega) was used to determine the effect of HOCl on IL-6 binding to human cells triggering a change in luminescence. IL-6 was incubated with various concentrations of HOCl and quenched, before addition to the receptor-expressing human cells.
Binding of the cytokine was measured by luminescence.

T1 sequence (P05231 30-212): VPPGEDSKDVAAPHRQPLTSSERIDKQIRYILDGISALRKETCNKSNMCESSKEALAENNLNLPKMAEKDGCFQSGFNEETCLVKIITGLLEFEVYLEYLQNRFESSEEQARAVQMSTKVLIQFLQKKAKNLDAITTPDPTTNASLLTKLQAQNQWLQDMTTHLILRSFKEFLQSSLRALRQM

Structure (SMILES)	binding of IL-6 to the capture antibody (IL-6 [1])	serious adverse effects (human subjects)	minor complaints (nose irritation, slight impact on ease of deep breathing) (human subjects; disappeared upon cessation of exposure)	Result/Behavior (mouse [2])	Result/Histopathology (mouse [2])	Result/Behavior (mouse [3])	Result/Histopathology (mouse [3])	capacity of the cytokine to initiate transmembrane signaling (IL-6 [4]; IL-6 exposed to HOCl)	luminescence of HOCl-treated IL-6 (IL-6 [4]; all concentrations tested, IL-6 incubated with HOCl and quenched before addition to cells)
OCl [HOCl, hypochlorous acid]	no detectable binding	No serious adverse effects	approximately 3%	No change	No	No change	No	complete inhibition	significantly reduced luminescence
OBr [HOBr, Hypobromous acid]	undetectable								
